According to ChEMBL document CHEMBL4229420, “ROCK inhibitors 2. Improving potency, selectivity and solubility through the application of rationally designed solubilizing groups” (Bioorg Med Chem Lett, 2018):
Values after ≈ are worked out from the molar mass of the structure shown.

Experiment: Solubility of the compound in pH 7.4 phosphate buffer
Type: physicochemical
Conditions: buffer
`CN1CCN(CCCOc2cccc(CC(=O)Nc3nc(-c4ccncc4)cs3)c2)CC1` showed a solubility of over 200 µM.
`O=C(Cc1cccc(OCCCC2CCNCC2)c1)Nc1nc(-c2ccncc2)cs1` gave a solubility of over 200 µM.

Same assay, conditions: phosphate buffer, read-out: solubility
`COc1cccc(CC(=O)Nc2nc(-c3ccncc3)cs2)c1` showed a solubility of 22 µM (≈ 7.16 µg/mL).
Work on `CN1CCC(CCCOc2cccc(CC(=O)Nc3nc(-c4ccncc4)cs3)c2)CC1` yielded a solubility of over 200 µM.
`O=C(Cc1cccc(OCCN2CCNCC2)c1)Nc1nc(-c2ccncc2)cs1` gave a solubility of over 200 µM.
For `O=C(Cc1cccc(OCCCN2CCOCC2)c1)Nc1nc(-c2ccncc2)cs1`, the solubility was over 200 µM.
`CN1CCN(CCOc2cccc(CC(=O)Nc3nc(-c4ccncc4)cs3)c2)CC1` gave a solubility of over 200 µM.
In the case of `O=C(Cc1cccc(OCCN2CCCCC2)c1)Nc1nc(-c2ccncc2)cs1`, the solubility is reported as over 200 µM.
Molecule `O=C(Cc1cccc(OCCCN2CCNCC2)c1)Nc1nc(-c2ccncc2)cs1` has a solubility of over 200 µM.
`O=C(Cc1cccc(OCCN2CCOCC2)c1)Nc1nc(-c2ccncc2)cs1` showed a solubility of over 200 µM.
`O=C(Cc1cccc(OCCCN2CCCCC2)c1)Nc1nc(-c2ccncc2)cs1` showed a solubility of over 200 µM.
